Assay results from patent US20240279298A1 (BEIJING TUO JIE BIOPHARMACEUTICAL CO. LTD., priority 2021, published 2024).
≈ marks a conversion by molar mass, not a printed value. Where a SMILES comes first, the peptide text is derived from it. [ ]: non-standard residue; d: D form. Aib = CC(C)(N)C(=O)O

Tests used:
[1] = biological target: T1, human glucagon receptor (GCGR) (Homo sapiens, UniProt P47871); test: Agonist activity assay for GCGR (cAMP HTRF); format: cell-based; details: normalized by the activity of the native glucagon
T1 construct: expressed in transfected cells
Procedure: The activation of GCGR by related compounds will stimulate the formation of cyclic adenosine monophosphate (cAMP) in cells. Thus, the receptor activity can be monitored by cAMP production in proper cells expressing the receptor. […] The cells were passaged at least once for subsequent tests. Before testing, the cells were trypsinized, centrifuged, washed once, and resuspended in serum-free DMEM/F12 medium. The cell density was adjusted, and the cells were plated in a 96-well plate at a density of 2,500 cells/5 μL/well. […] The mixture was mixed well by moderate vibration, and incubated for 1 hour at room temperature away from light.

[2] = biological target: T2, human GLP-1R (Homo sapiens, UniProt P43220); test: Agonist activity assay for GLP-1R (cAMP HTRF); format: cell-based
T2 construct: expressed in transfected cells
Procedure: (§1) The activation of GCGR by related compounds will stimulate the formation of cyclic adenosine monophosphate (cAMP) in cells. Thus, the receptor activity can be monitored by cAMP production in proper cells expressing the receptor.
(§2) Agonist activity assay for GCGR: Cryopreserved stable CHO-K1/GCGR/CRE-Luc cells were taken from a liquid nitrogen tank, thawed in a 37° C. water bath, resuspended in DMEM/F12 medium (Sigma Cat #D8437), centrifuged, and seeded into T75 culture flasks. The cells were passaged at least once for subsequent tests. Before testing, the cells were trypsinized, centrifuged, washed once, and resuspended in serum-free DMEM/F12 medium. The cell density was adjusted, and the cells were plated in a 96-well plate at a density of 2,500 cells/5 μL/well. A 1×buffer solution in Cisbio-cAMP-Gs Dynamic kit was prepared, and IBMX was added at a final concentration of 0.5 mM. 5 μL of polypeptide serially diluted by buffer was added into each well, and the plate was shaken gently for mixing and incubated for 30 minutes at 37° C. cAMP-d2 and Anti-cAMP-Eu^3+-Cryptate were 20-fold diluted with cAMP Lysis and detection buffer respectively and mixed well. 5 μL of diluted cAMP-d2 solution and 5 μL of diluted Anti-cAMP-Eu^3+-Cryptate solution were sequentially added into each well. The mixture was mixed well by moderate vibration, and incubated for 1 hour at room temperature away from light.
Agonist activity assay for GLP-1R: The method differed from the method described above for the agonist activity assay for GCGR in that a stable CHO-GLP-1R cell line was used.

[3] = biological target: T3, human GIPR (Homo sapiens, UniProt P48546); test: Agonist activity assay for GIPR (cAMP HTRF); format: cell-based; details: for EC50: CHO-K1/GIPR cell line, cAMP
T3 construct: expressed in transfected cells
T3 sequence (P48546 22-466): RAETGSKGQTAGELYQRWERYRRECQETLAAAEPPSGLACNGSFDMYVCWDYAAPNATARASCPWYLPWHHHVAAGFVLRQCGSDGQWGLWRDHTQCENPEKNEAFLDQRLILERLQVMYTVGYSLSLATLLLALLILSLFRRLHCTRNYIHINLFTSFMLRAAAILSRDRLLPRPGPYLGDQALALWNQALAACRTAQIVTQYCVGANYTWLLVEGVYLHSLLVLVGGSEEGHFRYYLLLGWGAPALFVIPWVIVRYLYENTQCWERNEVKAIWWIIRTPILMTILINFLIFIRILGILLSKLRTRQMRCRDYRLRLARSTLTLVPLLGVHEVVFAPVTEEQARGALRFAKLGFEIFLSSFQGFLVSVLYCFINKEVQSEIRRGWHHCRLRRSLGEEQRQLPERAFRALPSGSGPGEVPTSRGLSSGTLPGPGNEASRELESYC
Procedure: as §1, §2
Agonist activity assay for GIPR: The method differed from the method described above for the agonist activity assay for GCGR in that a stable CHO-K1/GIPR cell line was used, and the cell density was 3,000 cells/5 μL/well.

[4] = Maximum solubility in phosphate buffer pH 7.4; format: physicochemical; details: phosphate buffer pH 7.4, room temperature
[5] = Chemical stability in phosphate buffer (UPLC purity); format: physicochemical; details: phosphate buffer pH 7.4, 1 mg/mL; for Purity Day 0: day 0 (normalization)
Procedure: The compound purity was calculated by the percentage area of the main peak in the chromatograms relative to the total area of all integrated peaks, normalized by the purity of the sample on day 0 for the purity.

[6] = biological target: human glucose-dependent insulinotropic polypeptide receptor (GIPR) (human) (UniProt P48546); test: cell-based or functional assay

T1 sequence (P47871 26-477): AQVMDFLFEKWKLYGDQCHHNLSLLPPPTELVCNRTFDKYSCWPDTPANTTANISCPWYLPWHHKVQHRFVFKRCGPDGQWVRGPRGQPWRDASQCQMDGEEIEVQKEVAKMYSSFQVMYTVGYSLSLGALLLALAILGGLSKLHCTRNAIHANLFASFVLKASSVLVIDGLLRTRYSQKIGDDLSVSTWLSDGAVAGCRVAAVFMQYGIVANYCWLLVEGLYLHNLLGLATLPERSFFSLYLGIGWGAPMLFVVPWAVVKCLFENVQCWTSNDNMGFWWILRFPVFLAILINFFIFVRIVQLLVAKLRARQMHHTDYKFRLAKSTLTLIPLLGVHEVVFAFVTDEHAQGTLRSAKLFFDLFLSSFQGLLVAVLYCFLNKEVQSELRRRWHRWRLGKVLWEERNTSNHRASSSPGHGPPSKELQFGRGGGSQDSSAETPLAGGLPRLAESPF
T2 sequence (P43220 24-463): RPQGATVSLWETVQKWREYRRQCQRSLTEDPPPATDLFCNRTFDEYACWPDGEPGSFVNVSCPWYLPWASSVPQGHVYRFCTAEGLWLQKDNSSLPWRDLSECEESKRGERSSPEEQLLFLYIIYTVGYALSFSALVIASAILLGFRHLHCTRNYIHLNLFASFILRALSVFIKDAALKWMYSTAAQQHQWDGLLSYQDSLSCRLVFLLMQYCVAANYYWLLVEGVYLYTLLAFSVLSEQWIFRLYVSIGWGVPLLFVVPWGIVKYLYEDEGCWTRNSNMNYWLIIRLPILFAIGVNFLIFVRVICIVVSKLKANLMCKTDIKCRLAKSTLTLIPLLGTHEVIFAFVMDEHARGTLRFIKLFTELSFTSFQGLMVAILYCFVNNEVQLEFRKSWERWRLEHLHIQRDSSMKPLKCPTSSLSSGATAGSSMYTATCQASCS

| Relative activity [1] | GLP-1R % Activity relative to native GLP-1 [2] | EC50 [3] | GIPR % Activity relative to native GIP [3] | solubility at 5 min [4] | Purity Day 7 ([5]; 4° C.) | Purity Day 14 ([5]; 4° C.) | Purity Day 21 ([5]; 4° C.) | Purity Day 28 ([5]; 4° C.) | Purity Day 7 ([5]; 25° C.) | Purity Day 14 ([5]; 25° C.) | Purity Day 21 ([5]; 25° C.) | Purity Day 28 ([5]; 25° C.) | Purity Day 0 [5] | GIPR % Activity relative to native GIP, cAMP HTRF [6] | GIPR EC50 (nM), cAMP HTRF in CHO-K1/GIPR cells [6] | Molecule |
| --- | --- | --- | --- | --- | --- | --- | --- | --- | --- | --- | --- | --- | --- | --- | --- | --- |
| 268% | 0.212% | > 100 nM | <0.0700% | > 4790 µg/mL | 97.24% | 97.45% | 95.71% | 94.88% | 94.64% | 93.86% | 91.35% | 91.85% | 100.00% |  |  | CC(C)C[C@H](NC(=O)[C@H](Cc1c[nH]c2ccccc12)NC(=O)[C@H](CCC(N)=O)NC(=O)[C@@H](NC(=O)[C@H](Cc1ccccc1)NC(=O)[C@H](CCC(=O)O)NC(=O)[C@H](CCC(N)=O)NC(=O)[C@H](C)NC(=O)[C@H](CCCNC(=N)N)NC(=O)C(C)(C)NC(=O)[C@@H](NC(=O)[C@H](CC(=O)O)NC(=O)[C@H](CC(C)C)NC(=O)[C@H](Cc1ccc(O)cc1)NC(=O)[C@H](CCCCN)NC(=O)[C@H](CO)NC(=O)[C@H](Cc1ccc(O)cc1)NC(=O)[C@H](CC(=O)O)NC(=O)[C@H](CO)NC(=O)[C@@H](NC(=O)[C@H](Cc1ccccc1)NC(=O)[C@@H](NC(=O)CNC(=O)[C@H](CCC(N)=O)NC(=O)[C@H](CO)NC(=O)[C@@H](N)Cc1c[nH]cn1)[C@@H](C)O)[C@@H](C)O)[C@@H](C)O)C(C)C)C(=O)N[C@@H](CCC(=O)O)C(=O)N[C@@H](CO)C(=O)N[C@H](C(=O)O)[C@@H](C)O [Compound 39] (H-HSQGTFTSDYSKYLDT[Aib]RAQEFVQWLEST-OH) |
| 333% | 0.231% | > 100 nM | <0.0700% | 2560 µg/mL (≈ 751 µM) | 98.77% | 93.35% | 89.45% | 89.12% | 82.25% | 68.13% | 49.04% | 33.47% | 100.00% |  |  | CC(C)C[C@H](NC(=O)[C@H](Cc1c[nH]c2ccccc12)NC(=O)[C@H](CCC(N)=O)NC(=O)[C@@H](NC(=O)[C@H](Cc1ccccc1)NC(=O)[C@H](CCC(=O)O)NC(=O)[C@H](CCC(N)=O)NC(=O)[C@H](C)NC(=O)[C@H](CCCNC(=N)N)NC(=O)C(C)(C)NC(=O)[C@@H](NC(=O)[C@H](CC(=O)O)NC(=O)[C@H](CC(C)C)NC(=O)[C@H](Cc1ccc(O)cc1)NC(=O)[C@H](CCCCN)NC(=O)[C@H](CO)NC(=O)[C@H](Cc1ccc(O)cc1)NC(=O)[C@H](CC(=O)O)NC(=O)[C@H](CO)NC(=O)[C@@H](NC(=O)[C@H](Cc1ccccc1)NC(=O)[C@@H](NC(=O)CNC(=O)[C@H](CCC(N)=O)NC(=O)[C@H](CO)NC(=O)[C@@H](N)Cc1c[nH]cn1)[C@@H](C)O)[C@@H](C)O)C(C)C)C(C)C)C(=O)N[C@@H](CCC(=O)O)C(=O)N[C@@H](CO)C(=O)N[C@H](C(=O)O)[C@@H](C)O [Compound 41] (H-HSQGTFTSDYSKYLDV[Aib]RAQEFVQWLEST-OH) |
| 207% | 0.291% | > 100 nM | <0.0700% | > 2490 µg/mL |  |  |  |  |  |  |  |  |  |  |  | CC[C@H](C)[C@H](NC(=O)[C@H](CC(=O)O)NC(=O)[C@H](CC(C)C)NC(=O)[C@H](Cc1ccc(O)cc1)NC(=O)[C@H](CCCCN)NC(=O)[C@H](CO)NC(=O)[C@H](Cc1ccc(O)cc1)NC(=O)[C@H](CC(=O)O)NC(=O)[C@H](CO)NC(=O)[C@@H](NC(=O)[C@H](Cc1ccccc1)NC(=O)[C@@H](NC(=O)CNC(=O)[C@H](CCC(N)=O)NC(=O)[C@H](CO)NC(=O)[C@@H](N)Cc1c[nH]cn1)[C@@H](C)O)[C@@H](C)O)C(=O)NC(C)(C)C(=O)N[C@@H](CCCNC(=N)N)C(=O)N[C@@H](C)C(=O)N[C@@H](CCC(N)=O)C(=O)N[C@@H](CCC(=O)O)C(=O)N[C@@H](Cc1ccccc1)C(=O)N[C@H](C(=O)N[C@@H](CCC(N)=O)C(=O)N[C@@H](Cc1c[nH]c2ccccc12)C(=O)N[C@@H](CC(C)C)C(=O)N[C@@H](CCC(=O)O)C(=O)N[C@@H](CO)C(=O)N[C@H](C(=O)O)[C@@H](C)O)C(C)C [Compound 42] (H-HSQGTFTSDYSKYLDI[Aib]RAQEFVQWLEST-OH) |
|  |  |  |  |  |  |  |  |  |  |  |  |  |  | 100% | 0.0652 nM | human GIP (1-42) (from UniProt P09681 52-93) (ligand) |
